Reference: patent US9981918B2, “Kynurenine-3-monooxygenase inhibitors, pharmaceutical compositions, and methods of use thereof” (CHDI Foundation, Inc., priority 2011, dated 2018)

System: KMO
Test: KMO inhibition: L-Kynurenine hydroxylation to 3-Hydroxy-Kynurenine monitored by LC/MS
Assay type: biochemical
Conditions: compound at 10 uM; footnote: some portion of activity of amides may be due to contribution of acid precursor
Procedure: A generalized procedure for monitoring L-Kynurenine (KYN) hydroxylation to form product 3-Hydroxy-Kynurenine (30H-KYN) by LC/MS is described below. Product is quantified by multiple reaction monitoring using MS.
A method of monitoring L-Kynurenine (KYN) hydroxylation to form product 3-Hydroxy-Kynurenine (30H-KYN) by LC/MS is described below. Product is quantified by multiple reaction monitoring.
• Compound: Stock concentrations: 10 mM in 100% DMSO • Enzyme: KMO enzyme prepared at Evotec via mitochondria isolation from CHO-GST HIS KMO cells • Substrate: L-Kynurenine (Sigma: Cat# K3750) • [stock concentration: 10 mM in 100 mM potassium phosphate buffer, pH 7.4]
A method of monitoring L-Kynurenine (KYN) hydroxylation to form 3-Hydroxy-Kynurenine (30H-KYN) by LC/MS is described. Product is quantified by multiple reaction monitoring (MRM method).

O=C(OC[C@H]1OC(O)[C@H](O)[C@@H](O)[C@@H]1O)c1cc(-c2ccc(OC3CC3)c(Cl)c2)ncn1 (stereo partly drawn) [[(2R,3S,4S,5R)-3,4,5,6-tetrahydroxyoxan-2-yl]methyl 6-(3-chloro-4-cyclopropoxyphenyl)pyrimidine-4-carboxylate]
% Inhibition at 10 uM*: 102%
